How the values were obtained:
[1] = target: T1, Human GPR120 short form (short splice variant, NM_001195755.1) (Homo sapiens, UniProt Q5NUL3); assay: Human GPR120 Calcium Flux Assay; assay type: cell-based; settings: HEK-293 cells, 4200 cells/well, read-out: Human GPR120 Calcium Flux Assay Procedure B EC50
T1 construct: expressed in transfected cells; host or cells: HEK293
T1 sequence (Q5NUL3 1-361): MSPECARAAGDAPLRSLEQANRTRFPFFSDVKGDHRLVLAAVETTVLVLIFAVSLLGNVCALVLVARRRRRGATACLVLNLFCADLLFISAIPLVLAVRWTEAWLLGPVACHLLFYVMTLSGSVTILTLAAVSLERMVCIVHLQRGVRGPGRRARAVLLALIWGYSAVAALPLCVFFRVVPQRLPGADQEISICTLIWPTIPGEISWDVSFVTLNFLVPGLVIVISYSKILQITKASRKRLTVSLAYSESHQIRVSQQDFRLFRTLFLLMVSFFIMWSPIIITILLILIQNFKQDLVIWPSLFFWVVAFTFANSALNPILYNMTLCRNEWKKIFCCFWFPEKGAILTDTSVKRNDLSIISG
Excerpt: In Vitro Assay: Human GPR120 in Calcium Flux Assay
This in vitro assay serves to assess test compound agonist activity against the short splice variant (SVS with Accession number NM_001195755.1 confirmed by sequencing data) of the GPR120 receptor. The Human Short splice variant #2 (NM_001195755.1) is missing an in-frame coding exon compared to variant 1 (the Human Long splice variant NM_181745.3), resulting in a shorter isoform (GPR120-S) lacking a 16 aa protein segment compared to isoform GPR120-L. The assay platform utilizes HEK-293 cells stably transfected to express the Human GPR120 short form. These cells are first loaded with the Ca^+2 sensitive dye, Fluo-4 NW. Upon stimulation, intracellular released Ca^+2 can bind to the dye and alter its fluorescence intensity. This increase in fluorescence signal, and thus the flux in intracellular [Ca^2+], is detected and quantitated by fluorescence imaging using a FLIPR reader. The effect of the agonist is measured as a function of concentration and used to calculate an EC50 based upon a response curve. […]
In this procedure 4200 cells/well were employed.
A Human GPR120 clone (Genbank accession number NM_001195755.1) was placed into the pcDNA3.1 mammalian expression vector carrying the neomycin resistance gene. A stable mammalian cell was generated by placing the above clone into a HEK293 background. Clonal cells responding to long chain fatty acids had expression levels of GPR120 confirmed by RT-qPCR. Human HEK-GPR120 cells were cultured in Dulbecco's Modified Eagle's Medium (DMEM)/F12 medium supplemented with 10% fetal bovine serum (FBS), 1% L-Glutamine and 1% penicillin/streptomycin and 0.5 mg/ml G-418. Cells were split 2 times a week to keep the cells in the log-phase growth.
In preparation for the assay, HEK cells stably transfected with Human GPR120 (2.5K cells per well in 25 uL growth medium) were seeded into 384-well plates and then incubated overnight (37° C., 5% CO2). The next day, the media was changed to 20 μL assay buffer and the cell starved for 1 h at 37° C. The dye loading solution (2× dye) was prepared using 10 mL assay buffer, 100 μL of 250 mM probenecid, 1 bottle of Component A, and 20 μl of dye in DMSO. Twenty μL of the 2× dye loading buffer was then added to each well. The plates were incubated at 37° C. for 30 min, then at room temperature for an additional 15 minutes, before performing the assay on FLIPR.
The assay was performed on a FLIPR plate reader using the following parameters. Baseline was read for 10 seconds at 1 sec intervals. The program was set to transfer 10 μL of ligand from compound plate to cell plate after baseline reading. Aspiration was executed at: 10 μL/sec speed, 4.6 μL height; Dispensing was executed at: 30 μL/sec speed, 45 μL height. After compound addition, each well was read for 300 sec, with measurements collected at 1 sec intervals.
The kinetic data from the FLIPR was based upon a 5 minute window for data collection. The fluorescence of each sample well was used for individual calculations of a normalized RFU value, which was defined as maximum response minus the minimum response. The normalized fluorescence reading (RFU) was calculated as follows:
(§1) The data were fitted to a sigmoidal dose-response curve with a variable Hill slope (<2) using nonlinear regression with GraphPad Prism 5.0 to calculate the EC50 values. The Fitting Equation was: Y=Bottom+(Top−Bottom)/(1+10^((Log EC50−X)*HillSlope)), where X is the log of the concentration and Y is the response.

[2] = target: T2, short form of the GPR120 receptor (Homo sapiens, UniProt Q5NUL3); assay: Human GPR120 DiscoveRx PathHunter Beta-Arrestin Assay, Procedure B; assay type: cell-based; settings: PathHunter CHO-K1 GPR120S cells, 5000 cells/well
T2 construct: host or cells: PathHunter CHO-K1 GPR120S beta-Arrestin Cell Line
T2 sequence (Q5NUL3 1-361): T1 sequence (Q5NUL3 1-361)
Excerpt: Human GPR120 DiscoveRx PathHunter® Beta-Arrestin Assay
The binding of an agonist (medium/long chain fatty acids or small molecule agonists) to the G-protein-coupled receptor GPR120 activates phospholipase C, leading to release of intracellular Ca^+2 through the generation of inositol 1,4,5-trisphosphate (InsP3 or IP3). GPR120 activation can also trigger intracellular signaling via recruitment of Beta-Arrestin. In the present method, agonist-induced activation of the human GPR120 receptor is monitored through the use of PathHunter® CHO-K1 GPR120 Beta-Arrestin Cell Line engineered by DiscoveRx, as detailed below. The cell lines were designed to co-express both the ProLink/Enzyme Donor (PK)-tagged GPCR and the Enzyme […] (EA)-tagged Beta-Arrestin fusion proteins. Upon GPR120 receptor stimulation/activation, the EA-tagged Beta-Arrestin portion is translocated to the tagged receptor, where the two enzyme fragments are brought within close proximity. Under these conditions, these fragments can interact and form an active Beta-gal enzyme complex through Enzyme Fragment Complementation (EFC). This active Beta-gal complex can enzymatically hydrolyse the substrate to produce a detectable light signal; therefore, activation as a function of agonist concentration can be expressed as an EC50 value to determine relative compound activities. This in vitro assay therefore serves to assess compound agonist activity of the GPR120.
In Procedure β-arrestin B the cells used were PathHunter® CHO-K1 GPR120S β-Arrestin Cell Line, expressing the short form of the GPR120 receptor (Accession #[…]), with 5000 cells/well.
The selected CHO-K1 GPR120 β-Arrestin cells were cultured in Ham's F12 media supplemented with 10% fetal bovine serum (FBS), 1% Glutamine, 1× p/s, 800 μg/mL G418 and 300 μg/mL Hygromycin B (for selection). Cell stocks were maintained and grown in a sub-confluent state using standard cell culture procedures. The day before the experiment, the cells were harvested with non-enzymatic cell dissociation buffer and re-suspended in complete growth media at the desired concentration. A Corning 384-plate was then seeded with the proper number of cells in a volume of 25 μL, per well. The seeded plates were incubated overnight at 37° C.
On the day of the experiment, the Assay Buffer containing (a) HBSS with Ca^++ and Mg^++, (b) 20 mM HEPES, and (c) 0.1% BSA stabilizer (pH 7.4) was prepared. The growth medium was gently removed from the cell plates and 20 μL of Assay Buffer added to each well. The plate was then incubated at 37° C. for 60 min. Test compounds were serially diluted in Assay Buffer to desired concentrations (more particularly to one or more of the following μM concentrations: 25, 12.5, 6.25, 3.12, 1.56, 0.78, 0.39, 0.19, 0.10, 0.05, 0.02, 0.01). Five μL of compound dilution was then added to each well and the plate incubated at 37° C. for 90 min. The detection reagents were prepared according to the manufacture's instruction. Twelve μL of the detection reagents were added to each well and the plate incubated at room temperature for 60 min.
The plates were read on an EnVision instrument, using Protocol name: Luminescence, Plate type: 384 Costar, Measurement height: 3 mm, Measurement time: 1 s, Aperture: 384 Plate aperture. The % Activity relative to the positive control was calculated using the following equation:
as §1, with “% Activity values” for “data”, “were plotted versus the concentration of test compound and” for “were”, “a” for “a variable”, “slope=1 (fixed value)” for “slope (<2)”

Structure (SMILES) | EC50 [1] [nM] | EC50 [2] [nM]
Cc1cc(CCC(=O)O)ccc1OCC1=C(c2ccc(Cl)cc2)CCOC1 [compound 645] | 269 | 275
O=C(O)CCc1ccc(OCC2=C(c3ccc(Cl)cc3)CCOC2)cc1C(F)(F)F [compound 646] | 628 | 3650
Cc1cc(CCC(=O)O)ccc1OCC1=C(c2ccc(F)cc2)CSC1 [compound 625] | 124 | 110
Cc1cc(CCC(=O)O)ccc1OCC1=C(c2ccc(Cl)cc2)COCC1 [compound 753] | 178 | 296
Cc1c(CCC(=O)O)ccc(OCC2=C(c3ccc(Cl)cc3)CCOC2)c1C [compound 641] | 172 | 204
Cc1c(CCC(=O)O)ccc(OCC2=C(c3ccc(F)cc3)CCOC2)c1C [compound 650] | 316 | 658
O=C(O)CCc1cc(F)c(OCC2=C(c3ccc(Cl)cc3)CCOC2)c(F)c1 [compound 642] | 176 | 623
Cc1c(CCC(=O)O)ccc(OCC2=C(c3ccc(F)c(F)c3)CCOC2)c1C [compound 658] | 142 | 169
COc1ccc(C2=C(COc3ccc(CCC(=O)O)c(C)c3C)COCC2)cc1 [compound 647] | > 5000 | 740

From US20210024483A1, “HETEROCYLCOALKENYL DERIVATIVES USEFUL AS AGONISTS OF THE GPR120 AND / OR GPR40” (Janssen Pharmaceutica NV, priority 2018, published 2021)
